In general, IC50 refers to the midpoint of a concentration-inhibition curve.

Chain of FGFR3 kinase (P22607 23-806 K650E): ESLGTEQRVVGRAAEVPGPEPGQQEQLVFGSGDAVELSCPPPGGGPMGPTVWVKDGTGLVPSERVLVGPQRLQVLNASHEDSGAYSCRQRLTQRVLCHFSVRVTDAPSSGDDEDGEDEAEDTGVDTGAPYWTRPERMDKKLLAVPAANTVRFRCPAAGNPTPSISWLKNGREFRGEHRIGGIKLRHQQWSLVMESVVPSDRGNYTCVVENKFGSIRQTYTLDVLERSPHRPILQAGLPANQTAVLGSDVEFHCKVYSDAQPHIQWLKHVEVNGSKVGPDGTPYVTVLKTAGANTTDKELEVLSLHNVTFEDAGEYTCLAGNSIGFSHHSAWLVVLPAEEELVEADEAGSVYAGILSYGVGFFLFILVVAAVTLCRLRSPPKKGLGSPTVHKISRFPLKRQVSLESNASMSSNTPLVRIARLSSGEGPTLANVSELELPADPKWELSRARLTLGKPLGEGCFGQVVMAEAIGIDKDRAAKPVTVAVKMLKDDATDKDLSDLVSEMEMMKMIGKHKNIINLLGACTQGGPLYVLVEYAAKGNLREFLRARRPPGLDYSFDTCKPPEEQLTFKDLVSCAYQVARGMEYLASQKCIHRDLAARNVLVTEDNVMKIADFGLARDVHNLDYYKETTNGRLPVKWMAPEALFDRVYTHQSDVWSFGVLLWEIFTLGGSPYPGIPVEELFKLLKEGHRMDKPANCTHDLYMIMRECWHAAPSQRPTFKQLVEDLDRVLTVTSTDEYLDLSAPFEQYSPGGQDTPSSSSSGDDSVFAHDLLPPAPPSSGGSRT

The first assay concerns the target FGFR3 kinase (Homo sapiens (Human), UniProt P22607, K650E). The assay can be described thus: FGFR3 kinase inhibition (protein kinase activity assays). In kind it is biochemical. The settings on record: average of 2 independent measurements; * single value; read-out: FGFR3 IC50. The procedure: generic assay set-up: Enzyme activities were measured by mixing 10 μL of a 3-fold concentrated compound solution or control with 10 μL of the corresponding substrate mixture (peptidic substrate, ATP and [γ^33P]ATP). The reactions were initiated by addition of 10 μL of a 3-fold concentrated solution of the respective enzyme in assay buffer. […] Filter binding (FB) method: FB assays were carried out in 96-well plates at room temperature for 10 min in a finial volume of 30 μL including the components as indicated in section above. […] After spotting, vacuum was connected and each well rinsed with 200 μL 0.5% H3PO4. Free membranes were removed and washed 4 times on a shaker with 1% H3PO4 and once with ethanol. Membranes were dried and overlaid with addition of 10 μL/well of a scintillation fluid. The plates were eventually sealed and counted in a microplate scintillation counter. IC50 values were calculated by linear regression analysis of the percentage inhibition of the compound.
generic assay set-up: The assay has been run at room temperature on a liquid handling robot. […] After an incubation time of 45 min in the dark, the plates were transferred into a fluorescence reader for counting.
Compounds of formula (I) are assayed to measure their capacity to inhibit FGFR3 kinase as described above.
For the compound `Cc1cccc(C)c1-c1ccc(C(=O)Nc2nc(CN3CCN(C)CC3)c[nH]2)c2nccnc12` [Example 77, 8-(2,6-Dimethyl-phenyl)-quinoxaline-5-carboxylic acid [4-(4-methyl-piperazin-1-ylmethyl)-1H-imidazol-2-yl]-amide], the IC50 was > 10000 nM.
Turning to `COc1cc(OC)c(Cl)c(-c2ccc(C(=O)Nc3ccc(C(N)=O)cc3)c3nccnc23)c1Cl` [Example 3, 8-(2,6-Dichloro-3,5-dimethoxy-phenyl)-quinoxaline-5-carboxylic acid (4-carbamoyl-phenyl)-amide], the IC50 was > 10000 nM.
As to `COc1cc(OC)c(Cl)c(-c2ccc(C(=O)Nc3nnc[nH]3)c3nccnc23)c1Cl` [Example 17, 8-(2,6-Dichloro-3,5-dimethoxy-phenyl)-quinoxaline-5-carboxylic acid (4H-[1,2,4]triazol-3-yl)-amide], the IC50 is > 10000 nM.
`CCN1CCN(Cc2ccc(NC(=O)c3ccc(-c4cc(C)c[n+]([O-])c4C)c4nccnc34)nc2)CC1` [Example 99, 8-(2,5-Dimethyl-1-oxy-pyridin-3-yl)-quinoxaline-5-carboxylic acid [5-(4-ethyl-piperazin-1-ylmethyl)-pyridin-2-yl]-amide]: the IC50 was > 10000 nM.

Still in this assay, the particulars now being: read-out: rating (FGFR3 kinase IC50).
As to `COc1cc(OC)cc(-c2ccc(C(=O)Nc3ccc(CN4CCNCC4)cn3)c3nccnc23)c1` [Example 117], the IC50 fell in the range of 500 to 50000 nM.
Turning to `COc1cc(OC)c(Cl)c(-c2ccc(C(=O)Nc3cccnc3)c3ncc(N(C)CCN(C)C)nc23)c1Cl` [Example 87, 8-(2,6-Dichloro-3,5-dimethoxy-phenyl)-2-[(2-dimethylamino-ethyl)-methylamino]-quinoxaline-5-carboxylic acid pyridin-3-ylamide], the IC50 is 500 to 50000 nM.
On to `COc1cc(OC)c(Cl)c(-c2ccc(C(=O)Nc3ncc[nH]3)c3ncccc23)c1Cl` [Example 161, 5-(2,6-Dichloro-3,5-dimethoxy-phenyl)-quinoline-8-carboxylic acid (1H-imidazol-2-yl)-amide], for which the IC50 is < 100 nM.
Turning to `CCN1CCN(c2ccc(NC(=O)c3ccc(-c4c(C)cccc4C)c4nccnc34)cc2)CC1` [Example 72, 8-(2,6-Dimethyl-phenyl)-quinoxaline-5-carboxylic acid [4-(4-ethyl-piperazin-1-yl)-phenyl]-amide], the IC50 is 500 to 50000 nM.
Still for that read-out and setting: the result for `COc1cc(OC)c(Cl)c(-c2ccc(C(=O)Nc3ccc(CN(C)CCN(C)C)cn3)c3nccnc23)c1Cl` [Example 81, 8-(2,6-Dichloro-3,5-dimethoxy-phenyl)-quinoxaline-5-carboxylic acid (5-{[(2-dimethylamino-ethyl)-methyl-amino]-methyl}-pyridin-2-yl)-amide] reads < 100 nM.
As for `COc1ccc(Cl)c(-c2ccc(C(=O)Nc3ccc(OCCN(C)C)cc3)c3nccnc23)c1` [Example 65, 8-(2-Chloro-5-methoxy-phenyl)-quinoxaline-5-carboxylic acid [4-(2-dimethylamino-ethoxy)-phenyl]-amide], the IC50 lay in the range of 500 to 50000 nM.
On the same count and under the same terms, the same measure for `CCN1CCN(Cc2ccc(NC(=O)c3ccc(-c4c(Cl)c(OC)cc(OC)c4Cl)c4cccnc34)nc2)CC1` [Example 165, 5-(2,6-Dichloro-3,5-dimethoxy-phenyl)-quinoline-8-carboxylic acid [5-(4-ethyl-piperazin-1-ylmethyl)-pyridin-2-yl]-amide]: 100 to 500 nM; for `COc1cc(OC)c(Cl)c(-c2ccc(C(=O)Nc3nccn3Cc3ccccc3)c3ncccc23)c1Cl` [Example 160, 5-(2,6-Dichloro-3,5-dimethoxy-phenyl)-quinoline-8-carboxylic acid (1-benzyl-1H-imidazol-2-yl)-amide]: 500 to 50000 nM; for `CCN1CCN(c2ccc(NC(=O)c3ccc(-c4c(Cl)c(OC)cc(OC)c4Cl)c4nccnc34)cc2)CC1` [Example 1, 8-(2,6-Dichloro-3,5-dimethoxy-phenyl)-quinoxaline-5-carboxylic acid [4-(4-ethyl-piperazin-1-yl)-phenyl]-amide]: < 100 nM.
For `CCN1CCN(Cc2ccc(NC(=O)c3ccc(-c4cc(OC)cc(OC)c4)c4nccnc34)nc2)CC1` [Example 115, 8-(3,5-Dimethoxy-phenyl)-quinoxaline-5-carboxylic acid [5-(4-ethyl-piperazin-1-ylmethyl)-pyridin-2-yl]-amide], the IC50 is 500 to 50000 nM.
For `COc1cc(OC)c(Cl)c(-c2ccc(C(=O)Nc3ccc(CN4CCN(C)CC4)cn3)c3ncccc23)c1Cl` [Example 164, 5-(2,6-Dichloro-3,5-dimethoxy-phenyl)-quinoline-8-carboxylic acid [5-(4-methyl-piperazin-1-ylmethyl)-pyridin-2-yl]amide], the IC50 is < 100 nM.
In the case of `CCN1CCN(Cc2ccc(NC(=O)c3ccc(-c4c(F)c(OC)cc(OC)c4F)c4nccnc34)cn2)CC1` [Example 88, 8-(2,6-Difluoro-3,5-dimethoxy-phenyl)-quinoxaline-5-carboxylic acid [6-(4-ethyl-piperazin-1-ylmethyl)-pyridin-3-yl]-amide], the IC50 was < 100 nM.
Regarding `COc1cc(OC)c(Cl)c(-c2ccc(C(=O)Nc3nnc[nH]3)c3nccnc23)c1Cl` [Example 163, 8-(2,6-Dichloro-3,5-dimethoxy-phenyl)-quinoxaline-5-carboxylic acid (4H-[1,2,4]triazol-3-yl)-amide], the IC50 fell in the range of 500 to 50000 nM.
On the same count and under the same terms, the same measure for `COc1cc(OC)c(Cl)c(-c2ccc(C(=O)Nc3ccc(O)cc3)c3nccnc23)c1Cl` [Example 7, 8-(2,6-Dichloro-3,5-dimethoxy-phenyl)-quinoxaline-5-carboxylic acid (4-hydroxyphenyl)-amide]: 500 to 50000 nM; for `COc1cc(OC)c(F)c(-c2ccc(C(=O)Nc3ccc(CN4CCN(C)CC4)nc3)c3nccnc23)c1F` [Example 89, 8-(2,6-Difluoro-3,5-dimethoxy-phenyl)-quinoxaline-5-carboxylic acid [6-(4-methyl-piperazin-1-ylmethyl)-pyridin-3-yl]-amide]: < 100 nM; for `COc1cc(OC)c(Cl)c(-c2ccc(C(=O)Nc3ccc(OCCN(C)C)cc3)c3nccnc23)c1Cl` [Example 5, 8-(2,6-Dichloro-3,5-dimethoxy-phenyl)-quinoxaline-5-carboxylic acid [4-(2-dimethylamino-ethoxy)-phenyl]-amide]: < 100 nM.
As to `COc1cc(OC)c(F)c(-c2ccc(C(=O)Nc3cccnc3)c3nccnc23)c1F` [Example 90, 8-(2,6-Difluoro-3,5-dimethoxy-phenyl)-quinoxaline-5-carboxylic acid pyridin-3-ylamide], the IC50 was in the range of 100 to 500 nM.
As for `CCN1CCN(c2ccc(NC(=O)c3ccc(-c4c(Cl)c(OC)cc(OC)c4Cl)c4cccnc34)cc2)CC1` [Example 159, 5-(2,6-Dichloro-3,5-dimethoxy-phenyl)-quinoline-8-carboxylic acid [4-(4-ethyl-piperazin-1-yl)-phenyl]-amide], the concentration for half-maximal inhibition (IC50) was < 100 nM.
Same read-out and setting: the same measure for `COc1cc(OC)c(F)c(-c2ccc(C(=O)Nc3nc(CN4CCN(C)CC4)c[nH]3)c3nccnc23)c1F` [Example 141, 8-(2,6-Difluoro-3,5-dimethoxy-phenyl)-quinoxaline-5-carboxylic acid [4-(4-methyl-piperazin-1-ylmethyl)-1H-imidazol-2-yl]-amide]: < 100 nM; for `COc1cc(OC)c(Cl)c(-c2ccc(C(=O)Nc3cnc[nH]3)c3ncccc23)c1Cl` [Example 162, 5-(2,6-Dichloro-3,5-dimethoxy-phenyl)-quinoline-8-carboxylic acid (3H-imidazol-4-yl)-amide]: 100 to 500 nM.
On to `COc1cc(OC)c(Cl)c(-c2ccc(C(=O)Nc3ccc(CN4CCS(=O)(=O)CC4)cn3)c3nccnc23)c1Cl` [Example 104, 8-(2,6-Dichloro-3,5-dimethoxy-phenyl)-quinoxaline-5-carboxylic acid [5-(1,1-dioxothiomorpholin-4-ylmethyl)-pyridin-2-yl]-amide], for which the IC50 lay within 100 to 500 nM.
Turning to `COc1cc(OC)c(F)c(-c2ccc(C(=O)Nc3ccc(CN4CCS(=O)(=O)CC4)cn3)c3nccnc23)c1F` [Example 140, 8-(2,6-Difluoro-3,5-dimethoxy-phenyl)-quinoxaline-5-carboxylic acid [5-(1,1-dioxo-thiomorpholin-4-ylmethyl)-pyridin-2-yl]-amide], the IC50 is < 100 nM.
On to `CCN1CCN(Cc2ccc(NC(=O)c3ccc(-c4c(Cl)c(OC)cc(OC)c4Cl)c4cccnc34)cn2)CC1` [Example 169, 5-(2,6-Dichloro-3,5-dimethoxy-phenyl)-quinoline-8-carboxylic acid [6-(4-ethyl-piperazin-1-ylmethyl)-pyridin-3-yl]-amide], for which the IC50 is 100 to 500 nM.
Same read-out and setting: the same measure for `COc1cc(OC)c(Cl)c(-c2ccc(C(=O)Nc3ccc(CN4CCN(C)CC4)nc3)c3ncccc23)c1Cl` [Example 168, 5-(2,6-Dichloro-3,5-dimethoxy-phenyl)-quinoline-8-carboxylic acid [6-(4-methyl-piperazin-1-ylmethyl)-pyridin-3-yl]amide]: 100 to 500 nM; for `COc1cc(OC)c(Cl)c(-c2ccc(C(=O)Nc3ccc(N(C)C4CCN(C)CC4)nc3)c3nccnc23)c1Cl` [Example 37, 8-(2,6-Dichloro-3,5-dimethoxy-phenyl)-quinoxaline-5-carboxylic acid {6-[methyl-(1-methyl-piperidin-4-yl)-amino]-pyridin-3-yl}-amide]: < 100 nM.

(Values after patent US8536175B2, “Quinoxaline carboxamide derivatives as protein tyrosine kinase inhibitors” (Novartis AG, priority 2008, dated 2013).)
